This note sets out measurements from PubChem BioAssay AID743473 (The Scripps Research Institute Molecular Screening Center, 2014).

What all share (experiment): inhibition of MMP and meprin peptide cleavage – biochemical, QFRET, MMP1/2/8/9/10/13/14, Meprin A/B, selectivity assay for ADAM10 and ADAM17 inhibitor project, late-stage follow-up (AID 743473)
In one assay the target is MMP14. As to conditions: MCA fluorescence, metalloprotease panel.
For a further assay, the target named is Meprin B. As to conditions: MCA fluorescence, metalloprotease panel.
The target in another assay is MMP1. As to conditions: MCA fluorescence, metalloprotease panel.
Assay [1] addresses Collagenase 3 (Homo sapiens) (UniProt P45452). As to conditions: MCA fluorescence, metalloprotease panel, MMP13.
The target in the next assay is MMP2. The note with it: MCA fluorescence, metalloprotease panel.
A further assay concerns the target MMP8. As to conditions: MCA fluorescence, metalloprotease panel.
In another assay the target is MMP9. As to conditions: MCA fluorescence, metalloprotease panel.
In another assay the target is MMP10. As to conditions: MCA fluorescence, metalloprotease panel.
Another assay addresses Meprin A. As to conditions: MCA fluorescence, metalloprotease panel.

pIC50: −log10 of the molar value.

A word on the pIC50: it is −log10 of the IC50, conventionally taken in molar units. A high value points to a low IC50. In the case of `O=C(O)CCC(=O)c1c[nH]c2ccccc12`, the pIC50 (against MMP14; against Meprin B; against MMP1; in [1]; at MMP2; on MMP8) was below 4.00 each time. Besides, the pIC50 on MMP9, against MMP10 and against Meprin A was below 4.00 each time.

As for `COc1cccc(C(=O)NNC(=O)C(=O)Nc2ccc(C)c(Cl)c2)c1`, the pIC50 (against MMP14; at Meprin B; against MMP1; in assay [1]; at MMP2; against MMP8) was below 4.00 in each case. For the same compound, the pIC50 against MMP9, against MMP10 and against Meprin A was below 4.00 in each case.

Take `CCOc1ccc(NC(=O)CC2SC(=O)N(c3ccccc3)C2=O)cc1` (stereo unspecified): the pIC50 on MMP14 was 4.43; on Meprin B it was below 4.00; against MMP1, 4.12; in assay [1], 4.45; against MMP2, 5.33; against MMP8, 5.80. Besides, the pIC50 at MMP9 was 5.52; on MMP10, 4.54; at Meprin A, below 4.00.

With `O=C1NC(=O)C(Cc2ccc(Cl)cc2)(c2ccccc2)N1` (stereo unspecified), the negative-log IC50 (pIC50) on MMP14 is below 4.00; against Meprin B, below 4.00; on MMP1 it was 4.73; in assay [1] it was below 4.00; against MMP2 it was below 4.00; at MMP8 it was 5.19. In addition, the pIC50 against MMP9, against MMP10 and at Meprin A was below 4.00 in each case.
